# Test results reported in ChEMBL document CHEMBL4270669 (J Med Chem, 2018).
# Activity calls are given as the source filed them. No cut-off for these calls is given here.
# Legend:
# [1] = target: T1, Serine/threonine-protein kinase mTOR (Homo sapiens, UniProt P42345); experiment: Binding affinity to mTOR FKBP12 site (unknown origin)
# [2] = AUC in Sprague-Dawley rat plasma at 10 mg/kg, po administered as single dose after 8 hrs; assay type: ADME, organism-based; design: dose 10 mg/kg, time < 8 hr, route oral
# [3] = Thermodynamic solubility of the compound at pH 4.5; assay type: physicochemical; conditions: buffer, read-out: Therm_solubility
# [4] = Metabolic stability in mouse liver microsomes assessed as compound remaining after 30 mins; assay type: ADME, microsome; conditions: read-out: Stability
# [5] = system: Rattus norvegicus; experiment: Increase in glucose levels in Sprague-Dawley rat plasma at 10 mg/kg, po administered as single dose; assay type: functional, organism-based
# [6] = target: T2, Phosphatidylinositol 4,5-bisphosphate 3-kinase catalytic subunit alpha isoform (Homo sapiens, UniProt P42336)
# T2 sequence (P42336 whole entry, canonical isoform): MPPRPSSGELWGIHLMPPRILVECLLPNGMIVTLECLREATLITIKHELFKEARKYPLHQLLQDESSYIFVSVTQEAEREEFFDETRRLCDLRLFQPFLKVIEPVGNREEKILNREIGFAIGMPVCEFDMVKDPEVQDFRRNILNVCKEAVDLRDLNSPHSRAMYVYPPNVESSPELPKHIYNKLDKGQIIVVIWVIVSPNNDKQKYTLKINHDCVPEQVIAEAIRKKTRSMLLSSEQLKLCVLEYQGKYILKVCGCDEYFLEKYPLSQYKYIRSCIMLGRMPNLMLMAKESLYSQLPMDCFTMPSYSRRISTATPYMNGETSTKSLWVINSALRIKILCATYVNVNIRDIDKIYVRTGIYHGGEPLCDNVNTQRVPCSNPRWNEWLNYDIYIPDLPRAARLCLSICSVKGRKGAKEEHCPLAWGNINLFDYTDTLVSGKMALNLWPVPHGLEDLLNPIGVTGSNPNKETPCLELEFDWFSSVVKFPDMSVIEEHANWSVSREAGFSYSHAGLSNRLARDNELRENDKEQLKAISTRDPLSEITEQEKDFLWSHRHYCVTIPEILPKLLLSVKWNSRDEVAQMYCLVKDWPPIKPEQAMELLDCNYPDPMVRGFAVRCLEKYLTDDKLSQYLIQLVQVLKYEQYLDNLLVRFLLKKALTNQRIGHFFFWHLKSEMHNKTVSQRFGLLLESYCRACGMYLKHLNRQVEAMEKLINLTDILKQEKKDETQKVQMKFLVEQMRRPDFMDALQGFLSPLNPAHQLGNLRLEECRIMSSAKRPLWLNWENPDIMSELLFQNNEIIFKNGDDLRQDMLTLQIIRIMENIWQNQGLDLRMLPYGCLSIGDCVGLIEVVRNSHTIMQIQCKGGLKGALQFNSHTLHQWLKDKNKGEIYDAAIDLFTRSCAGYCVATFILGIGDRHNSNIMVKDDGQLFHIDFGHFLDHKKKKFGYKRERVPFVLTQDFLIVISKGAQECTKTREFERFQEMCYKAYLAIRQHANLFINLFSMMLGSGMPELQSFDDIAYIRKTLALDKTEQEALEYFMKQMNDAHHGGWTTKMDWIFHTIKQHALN
# [7] = system: Mus musculus; experiment: Antiepileptic activity in Tsc1flox/flox/GFAP-Cre conditional knocked out mouse model assessed as reduction in seizures at 100 mg/kg, po qd treated from days 21 to 53 postnatal by electroencephalography; assay type: functional, organism-based
# [8] = target: Voltage-gated inwardly rectifying potassium channel KCNH2 (Homo sapiens, UniProt Q12809); experiment: Binding affinity to human ERG expressed in CHO cell membranes at 10 uM by radioligand displacement assay
# [9] = Inhibition of TORC1 in human A2058 cells assessed as decrease in S6 phosphorylation at Ser235/236 after 1 hr by Western blot analysis; assay type: cell-based; conditions: A2058, 1 h
# [10] = system: Mus musculus; experiment: Increase in insulin levels in C57BL/6JRj mouse plasma at 50 mg/kg, po administered as single dose; assay type: functional, organism-based
# [11] = Clearance in rat hepatocytes assessed per million cells; assay type: ADME, cell-based, Hepatocyte; conditions: read-out: CLH
# [12] = Half life in mouse hepatocytes; assay type: ADME, cell-based, Hepatocyte
# [13] = target: T1, Serine/threonine-protein kinase mTOR
# Description: Inhibition of human mTOR (1382 to 2549 residues) expressed in mammalian expression system by KINOMEscan assay
# [14] = AUC in Sprague-Dawley rat brain at 10 mg/kg, po administered as single dose after 8 hrs; assay type: ADME, organism-based; design: dose 10 mg/kg, time < 8 hr, route oral; conditions: in vivo
# [15] = Ratio of drug level in C57BL/6JRj mouse brain to plasma at 50 mg/kg, po administered as single dose; assay type: ADME, organism-based; conditions: read-out: BPR
# [16] = target: Phosphatidylinositol 3-kinase catalytic subunit type 3 (Homo sapiens, UniProt Q8NEB9); experiment: Inhibition of human VPS34 (282 to 879 residues) expressed in mammalian expression system by KINOMEscan assay
# [17] = Drug uptake in Sprague-Dawley rat brain at 10 mg/kg, po administered as single dose measured at >8 hrs; assay type: ADME, organism-based; conditions: read-out: Drug uptake
# [18] = system: A 172; experiment: Growth inhibition of human A172 cells after 72 hrs by ATPlite based assay; assay type: functional; conditions: A 172, 72 h, pooled result: one value given for 8 cell lines, strains, targets or settings
# [19] = Clearance in mouse hepatocytes assessed per million cells; assay type: ADME, cell-based, Hepatocyte; conditions: read-out: CLH
# [20] = Metabolic stability in rat liver microsomes assessed as compound remaining after 30 mins; assay type: ADME, microsome; conditions: read-out: Stability
# [21] = Unbound fraction in rat brain; assay type: ADME, tissue-based
# [22] = target: Phosphatidylinositol 4,5-bisphosphate 3-kinase catalytic subunit beta isoform (Homo sapiens, UniProt P42338)
# Chain of Phosphatidylinositol 4,5-bisphosphate 3-kinase catalytic subunit beta isoform (P42338 whole entry, canonical isoform): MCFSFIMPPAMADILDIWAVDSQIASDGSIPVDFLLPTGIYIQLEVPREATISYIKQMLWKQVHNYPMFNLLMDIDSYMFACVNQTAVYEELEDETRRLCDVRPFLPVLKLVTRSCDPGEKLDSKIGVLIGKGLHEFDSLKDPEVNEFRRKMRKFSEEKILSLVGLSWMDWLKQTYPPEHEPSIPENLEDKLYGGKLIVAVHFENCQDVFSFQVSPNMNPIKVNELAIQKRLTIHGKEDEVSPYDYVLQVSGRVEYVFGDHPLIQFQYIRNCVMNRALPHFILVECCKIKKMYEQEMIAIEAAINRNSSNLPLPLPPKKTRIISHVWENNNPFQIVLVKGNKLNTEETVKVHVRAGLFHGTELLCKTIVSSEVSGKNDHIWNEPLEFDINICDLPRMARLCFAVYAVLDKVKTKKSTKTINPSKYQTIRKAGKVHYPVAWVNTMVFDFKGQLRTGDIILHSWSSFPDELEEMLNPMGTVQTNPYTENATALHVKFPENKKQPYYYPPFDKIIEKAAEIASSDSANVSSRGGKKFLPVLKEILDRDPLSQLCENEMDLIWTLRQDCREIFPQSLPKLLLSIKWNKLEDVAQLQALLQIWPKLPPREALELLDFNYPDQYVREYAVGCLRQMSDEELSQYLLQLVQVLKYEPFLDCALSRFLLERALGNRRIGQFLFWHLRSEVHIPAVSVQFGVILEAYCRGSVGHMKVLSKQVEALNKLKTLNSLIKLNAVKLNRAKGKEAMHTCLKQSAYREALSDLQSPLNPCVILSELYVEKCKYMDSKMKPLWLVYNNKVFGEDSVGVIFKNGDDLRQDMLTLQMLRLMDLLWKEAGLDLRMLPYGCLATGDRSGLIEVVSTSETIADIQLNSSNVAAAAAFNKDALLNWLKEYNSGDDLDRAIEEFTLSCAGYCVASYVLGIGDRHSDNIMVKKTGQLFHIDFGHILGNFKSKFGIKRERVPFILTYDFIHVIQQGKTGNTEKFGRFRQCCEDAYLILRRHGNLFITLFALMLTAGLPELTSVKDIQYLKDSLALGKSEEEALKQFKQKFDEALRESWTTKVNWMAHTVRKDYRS
# Description: Inhibition of human PI3Kbeta (118 to 1070 residues) expressed in mammalian expression system by KINOMEscan assay
# [23] = target: T3, Phosphatidylinositol 4,5-bisphosphate 3-kinase catalytic subunit delta isoform (Homo sapiens, UniProt O00329)
# T3 sequence (O00329 whole entry): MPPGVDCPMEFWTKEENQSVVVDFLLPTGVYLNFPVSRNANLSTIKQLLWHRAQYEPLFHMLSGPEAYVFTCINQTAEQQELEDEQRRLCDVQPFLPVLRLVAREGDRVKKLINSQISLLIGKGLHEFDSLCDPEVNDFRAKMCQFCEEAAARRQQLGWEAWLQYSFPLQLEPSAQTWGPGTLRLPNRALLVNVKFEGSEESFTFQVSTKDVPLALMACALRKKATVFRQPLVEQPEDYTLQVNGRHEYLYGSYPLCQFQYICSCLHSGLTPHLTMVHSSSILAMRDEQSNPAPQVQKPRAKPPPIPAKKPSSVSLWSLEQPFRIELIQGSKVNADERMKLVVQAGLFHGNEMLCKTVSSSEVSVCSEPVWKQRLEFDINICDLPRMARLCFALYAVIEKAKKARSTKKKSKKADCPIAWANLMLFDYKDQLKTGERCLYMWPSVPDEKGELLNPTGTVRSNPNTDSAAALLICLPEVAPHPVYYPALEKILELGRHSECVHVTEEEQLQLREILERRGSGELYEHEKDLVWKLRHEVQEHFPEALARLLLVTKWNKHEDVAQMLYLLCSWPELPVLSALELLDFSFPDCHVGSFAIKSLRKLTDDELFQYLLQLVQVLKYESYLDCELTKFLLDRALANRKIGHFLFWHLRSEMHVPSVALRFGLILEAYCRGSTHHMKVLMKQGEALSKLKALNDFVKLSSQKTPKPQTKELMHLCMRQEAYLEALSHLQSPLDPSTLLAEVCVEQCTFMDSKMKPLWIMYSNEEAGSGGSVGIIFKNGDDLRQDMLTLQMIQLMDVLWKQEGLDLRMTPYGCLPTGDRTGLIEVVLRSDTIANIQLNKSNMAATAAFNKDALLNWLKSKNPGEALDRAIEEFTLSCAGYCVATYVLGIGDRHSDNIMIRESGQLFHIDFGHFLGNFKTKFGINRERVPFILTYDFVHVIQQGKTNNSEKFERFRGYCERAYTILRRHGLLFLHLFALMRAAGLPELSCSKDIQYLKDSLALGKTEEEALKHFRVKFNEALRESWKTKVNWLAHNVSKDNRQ
# Description: Inhibition of human PI3Kdelta (108 to 1044 residues) expressed in mammalian expression system by KINOMEscan assay
# [24] = Thermodynamic solubility of the compound in FeSSIF; assay type: physicochemical; conditions: read-out: Therm_solubility
# [25] = target: Phosphatidylinositol 4,5-bisphosphate 3-kinase catalytic subunit gamma isoform (Homo sapiens, UniProt P48736)
# Chain of Phosphatidylinositol 4,5-bisphosphate 3-kinase catalytic subunit gamma isoform (P48736 whole entry, canonical isoform): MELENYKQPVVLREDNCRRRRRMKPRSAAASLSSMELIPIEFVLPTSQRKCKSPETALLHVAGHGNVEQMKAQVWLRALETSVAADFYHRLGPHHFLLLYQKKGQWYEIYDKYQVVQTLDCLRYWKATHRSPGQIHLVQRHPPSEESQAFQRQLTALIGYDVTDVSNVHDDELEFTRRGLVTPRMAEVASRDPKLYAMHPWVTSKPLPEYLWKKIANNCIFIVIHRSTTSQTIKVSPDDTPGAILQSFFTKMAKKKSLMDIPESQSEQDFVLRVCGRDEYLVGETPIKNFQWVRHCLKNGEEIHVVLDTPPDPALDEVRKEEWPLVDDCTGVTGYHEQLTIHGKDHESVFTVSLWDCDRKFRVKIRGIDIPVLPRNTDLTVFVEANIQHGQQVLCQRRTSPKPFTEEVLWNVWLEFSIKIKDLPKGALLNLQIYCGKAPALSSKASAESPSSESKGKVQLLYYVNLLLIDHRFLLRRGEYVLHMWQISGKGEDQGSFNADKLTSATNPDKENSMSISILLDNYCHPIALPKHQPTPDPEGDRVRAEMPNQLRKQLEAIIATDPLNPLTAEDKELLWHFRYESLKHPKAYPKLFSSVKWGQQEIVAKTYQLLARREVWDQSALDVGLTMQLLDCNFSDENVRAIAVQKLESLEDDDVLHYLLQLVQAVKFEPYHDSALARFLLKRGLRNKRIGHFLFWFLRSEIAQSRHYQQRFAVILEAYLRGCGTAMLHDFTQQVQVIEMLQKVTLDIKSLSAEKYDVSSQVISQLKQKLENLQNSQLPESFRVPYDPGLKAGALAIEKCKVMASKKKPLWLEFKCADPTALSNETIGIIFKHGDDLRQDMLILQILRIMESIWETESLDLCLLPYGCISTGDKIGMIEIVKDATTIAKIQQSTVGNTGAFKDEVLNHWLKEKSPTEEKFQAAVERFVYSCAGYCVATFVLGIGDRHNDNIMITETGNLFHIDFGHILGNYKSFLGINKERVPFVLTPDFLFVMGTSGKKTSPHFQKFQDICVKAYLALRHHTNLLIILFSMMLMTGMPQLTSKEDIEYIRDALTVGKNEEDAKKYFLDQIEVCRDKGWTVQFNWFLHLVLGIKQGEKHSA
# Description: Inhibition of human PI3Kgamma (144 to 1102 residues) expressed in mammalian expression system by KINOMEscan assay
# [26] = system: Rattus norvegicus; experiment: Increase in insulin levels in Sprague-Dawley rat plasma at 10 mg/kg, po administered as single dose; assay type: functional, organism-based
# [27] = target: T2, Phosphatidylinositol 4,5-bisphosphate 3-kinase catalytic subunit alpha isoform; remark: listed apart in the source
# Description: Inhibition of human PI3Kalpha (108 to 1068 residues) expressed in mammalian expression system by KINOMEscan assay
# [28] = target: T1, Serine/threonine-protein kinase mTOR; remark: listed apart in the source
# [29] = Lipophilicity, log D of the compound at pH 7.4; assay type: physicochemical; conditions: buffer
# [30] = Cmax in C57BL/6JRj mouse brain at 50 mg/kg, po administered as single dose; assay type: ADME, organism-based; design: dose 50 mg/kg, route oral
# [31] = system: Mus musculus; experiment: Toxicity in BALB/C nude mouse xenografted with human OVCAR3 cells assessed as body weight loss at 50 mg/kg, po administered daily for 28 days relative to control; assay type: organism-based; conditions: in vivo, 672 h
# [32] = target: COX1 (Prostaglandin G/H synthase 1) (Homo sapiens, UniProt P23219); experiment: Inhibition of recombinant human COX1 at 10 uM using arachidonic acid/ADHP as substrate by fluorometric method relative to control; conditions: recombinant human COX1, probe arachidonic acid/ADHP
# Chain of COX1 (Prostaglandin G/H synthase 1) (P23219 whole entry): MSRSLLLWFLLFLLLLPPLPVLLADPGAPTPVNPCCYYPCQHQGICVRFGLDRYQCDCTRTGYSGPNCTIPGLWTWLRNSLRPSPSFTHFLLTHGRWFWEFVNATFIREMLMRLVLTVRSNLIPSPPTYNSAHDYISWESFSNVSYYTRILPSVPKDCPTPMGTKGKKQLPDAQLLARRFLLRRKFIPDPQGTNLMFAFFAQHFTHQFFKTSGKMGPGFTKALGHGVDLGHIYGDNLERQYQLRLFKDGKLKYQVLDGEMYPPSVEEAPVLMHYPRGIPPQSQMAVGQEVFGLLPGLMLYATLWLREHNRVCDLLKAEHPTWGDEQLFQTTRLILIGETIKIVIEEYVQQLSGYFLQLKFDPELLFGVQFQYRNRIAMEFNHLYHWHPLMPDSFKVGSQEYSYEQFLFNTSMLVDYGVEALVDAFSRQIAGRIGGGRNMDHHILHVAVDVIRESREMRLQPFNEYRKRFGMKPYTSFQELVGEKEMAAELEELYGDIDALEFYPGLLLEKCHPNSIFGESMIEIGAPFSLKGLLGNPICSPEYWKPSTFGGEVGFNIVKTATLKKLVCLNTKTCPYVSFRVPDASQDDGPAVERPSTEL
# [33] = Toxicity in rat after 14 days; assay type: organism-based; conditions: in vivo
# [34] = Cmax in Sprague-Dawley rat brain at 10 mg/kg, po administered as single dose after 30 mins; assay type: ADME, organism-based; design: dose 10 mg/kg, route oral
# [35] = Thermodynamic solubility of the compound at pH 1.2; assay type: physicochemical; conditions: buffer, read-out: Therm_solubility
# [36] = Ratio of drug level in Sprague-Dawley rat brain to plasma at 10 mg/kg, po administered as single dose; assay type: ADME, organism-based; conditions: read-out: BPR
# [37] = Apparent permeability of the compound by PAMPA; assay type: ADME
# [38] = Half life in rat hepatocytes; assay type: ADME, cell-based, Hepatocyte
# [39] = Thermodynamic solubility of the compound at pH 6.8; assay type: physicochemical; conditions: buffer, read-out: Therm_solubility
# [40] = Inhibition of TORC2 in human A2058 cells assessed as decrease in PKB/Akt phosphorylation at Ser473 after 1 hr by Western blot analysis; assay type: cell-based; conditions: A2058, 1 h
# [41] = Thermodynamic solubility of the compound in FaSSIF; assay type: physicochemical; conditions: read-out: Therm_solubility
# [42] = target: Phosphatidylinositol 4-kinase beta (Homo sapiens, UniProt Q9UBF8)
# Chain of Phosphatidylinositol 4-kinase beta (Q9UBF8 whole entry): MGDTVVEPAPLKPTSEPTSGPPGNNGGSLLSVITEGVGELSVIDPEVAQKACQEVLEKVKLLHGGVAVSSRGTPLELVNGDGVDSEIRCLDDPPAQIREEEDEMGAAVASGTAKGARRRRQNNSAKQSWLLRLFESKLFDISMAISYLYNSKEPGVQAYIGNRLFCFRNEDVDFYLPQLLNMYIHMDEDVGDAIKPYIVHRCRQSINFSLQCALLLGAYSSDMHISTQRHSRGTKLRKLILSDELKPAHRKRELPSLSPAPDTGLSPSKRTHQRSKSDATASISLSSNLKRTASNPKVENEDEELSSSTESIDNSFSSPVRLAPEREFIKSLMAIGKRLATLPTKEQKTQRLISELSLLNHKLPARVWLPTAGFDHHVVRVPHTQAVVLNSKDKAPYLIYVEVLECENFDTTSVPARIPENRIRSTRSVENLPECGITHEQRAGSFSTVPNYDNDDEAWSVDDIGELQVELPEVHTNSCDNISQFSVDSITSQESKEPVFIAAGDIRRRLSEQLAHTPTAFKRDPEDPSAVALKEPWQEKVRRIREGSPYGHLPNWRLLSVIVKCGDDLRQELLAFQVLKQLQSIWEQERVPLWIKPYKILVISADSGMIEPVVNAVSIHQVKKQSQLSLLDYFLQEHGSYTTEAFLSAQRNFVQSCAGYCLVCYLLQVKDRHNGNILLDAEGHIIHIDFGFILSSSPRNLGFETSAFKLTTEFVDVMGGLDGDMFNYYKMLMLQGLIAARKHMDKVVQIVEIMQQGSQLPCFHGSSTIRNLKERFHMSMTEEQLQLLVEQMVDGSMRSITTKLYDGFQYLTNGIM
# Description: Inhibition of human PI4Kbeta (1 to 828 residues) expressed in mammalian expression system by KINOMEscan assay
# [43] = Toxicity in mouse; assay type: organism-based; conditions: in vivo
# [44] = system: Mus musculus; experiment: Increase in glucose levels in C57BL/6JRj mouse plasma at 50 mg/kg, po administered as single dose; assay type: functional, organism-based
# [45] = target: PDE4D2 (3',5'-cyclic-AMP phosphodiesterase 4D) (Homo sapiens, UniProt Q08499); experiment: Inhibition of recombinant human PDE4D2 at 10 uM using [3H]cAMP/cAMP by scintillation counting method relative to control; conditions: recombinant human PDE4D2, probe [3H]cAMP/cAMP
# [46] = system: OVCAR-3; experiment: Antitumor activity against human OVCAR3 cells xenografted in BALB/C nude mouse assessed as tumor growth inhibition at 50 mg/kg, po administered daily for 28 days relative to control; assay type: functional; conditions: OVCAR-3, po, 672 h, read-out: TGI
# [47] = Cmax in Sprague-Dawley rat plasma at 10 mg/kg, po administered as single dose after 30 mins; assay type: ADME, organism-based; design: dose 10 mg/kg, route oral
# [48] = system: A2058; experiment: Antiproliferative activity against human A2058 cells at 10 uM after 72 hrs by ATPlite based assay; assay type: functional, cell-based
# [49] = system: SK-OV-3; experiment: Induction of cell cycle arrest in human SKOV3 cells assessed as accumulation at G1 phase at 2 uM after 24 hrs by Hoechst33342-staining based FACS analysis; assay type: functional
# [50] = system: A2058; experiment: Induction of cell cycle arrest in human A2058 cells assessed as decrease in cell levels at G2/M phase at 5 uM after 24 hrs by Hoechst33342-staining based FACS analysis; assay type: functional
# [51] = system: SK-OV-3; experiment: Antiproliferative activity against human SKOV3 cells at 10 uM after 72 hrs by ATPlite based assay; assay type: functional, cell-based
# [52] = system: A2058; experiment: Induction of cell cycle arrest in human A2058 cells assessed as decrease in cell levels at S phase at 5 uM after 24 hrs by Hoechst33342-staining based FACS analysis; assay type: functional
# [53] = system: SK-OV-3; experiment: Induction of cell cycle arrest in human SKOV3 cells assessed as decrease in cell levels at G2/M phase at 2 uM after 24 hrs by Hoechst33342-staining based FACS analysis; assay type: functional
# [54] = system: A2058; experiment: Induction of cell cycle arrest in human A2058 cells assessed as accumulation at G1 phase at 5 uM after 24 hrs by Hoechst33342-staining based FACS analysis; assay type: functional
# [55] = system: SK-OV-3; experiment: Induction of cell cycle arrest in human SKOV3 cells assessed as decrease in cell levels at S phase at 2 uM after 24 hrs by Hoechst33342-staining based FACS analysis; assay type: functional
smiles,measurement,setting,value
CO[C@H]1C[C@@H]2CC[C@@H](C)[C@@](O)(O2)C(=O)C(=O)N2CCCC[C@H]2C(=O)O[C@H]([C@H](C)C[C@@H]2CC[C@@H](OCCO)[C@H](OC)C2)CC(=O)[C@H](C)/C=C(\C)[C@@H](O)[C@@H](OC)C(=O)[C@H](C)C[C@H](C)/C=C/C=C/C=C/1C [EVEROLIMUS],Kd,[1],0.002 µM
Nc1cc(C(F)F)c(-c2nc(N3C4CCC3COC4)nc(N3C4CCC3COC4)n2)cn1,AUC at 8 h,[2],409 µg·h/mL
same,solubility thermodynamic,[3],78.2 µM
same,remaining at 0.5 h,[4],70.2%
same,Activity,[5],inactive
same,Ki,[6],4.2 µM
same,Activity,[7],Active
same,inhibition (INH),[8],Not Active
same,IC50,[9],0.0852 µM
same,Activity,[10],inactive
same,hepatocyte CLint,[11],1.85 µL/min/1e6 cells
same,half-life,[12],5.41 h
same,Kd,[13],0.00027 µM
same,AUC,[14],404 µg·h/g
same,Kp,[15],1.6
same,Kd,[16],2.75 µM
same,concentration at 8 h,[17],900 ng/g
same,IC50,[18],0.92 µM
same,hepatocyte CLint,[19],2.67 µL/min/1e6 cells
same,remaining at 0.5 h,[20],108%
same,fraction unbound,[21],0.03
same,Kd,[22],22 µM
same,Kd,[23],23 µM
same,solubility thermodynamic,[24],335 µM
same,Kd,[25],18 µM
same,Activity,[26],inactive
same,Kd,[27],1 µM
same,Ki,[28],0.0108 µM
same,logD,[29],3.47
same,Cmax,[30],7710 ng/g
same,Activity,[31],Non-Toxic
same,inhibition at 10 µM,[32],< 50%
same,MTD at 336 h,[33],30 mg/kg
same,Cmax,[34],1310 ng/g
same,solubility thermodynamic,[35],20000 µM
same,Kp,[36],1
same,Papp,[37],5.22 ×10⁻⁶ cm/s
same,half-life,[38],7.81 h
same,solubility thermodynamic,[39],33.7 µM
same,IC50,[40],0.19 µM
same,solubility thermodynamic,[41],66 µM
same,Kd,[42],> 30 µM
same,MTD,[43],150 mg/kg
same,Activity,[44],Active
same,inhibition at 10 µM,[45],< 50%
same,inhibition in vivo at 50 mg/kg,[46],> 50%
same,Cmax,[47],1360 ng/mL
CO[C@H]1C[C@@H]2CC[C@@H](C)[C@@](O)(O2)C(=O)C(=O)N2CCCC[C@H]2C(=O)O[C@H]([C@H](C)C[C@@H]2CC[C@@H](O)[C@H](OC)C2)CC(=O)[C@H](C)/C=C(\C)[C@@H](O)[C@@H](OC)C(=O)[C@H](C)C[C@H](C)/C=C/C=C/C=C/1C,Activity,[48],Active
same,Activity,[49],Active
same,Activity,[50],Active
same,Activity,[51],inactive
same,Activity,[52],Active
same,Activity,[53],Active
same,Activity,[54],Active
same,Activity,[55],Active
